Data from patent US6906095B2, “Indolylalkylidenehydrazine-carboximidamide derivatives as 5-hydroxytryptamine-6 ligands” (Wyeth, priority 2002, dated 2005).
pKi: −log10 of the molar value.

The molecules below were run against T1, human cloned 5-HT6 receptors (Homo sapiens, UniProt P50406) (assay: 5-HT6 binding affinity, [3H]-LSD displacement in membranes of Hela cells). Details: not given.
T1 construct: expressed in transfected cells; host or cells: Hela cells
Procedure: The affinity of test compounds for the serotonin 5-HT6 receptor is evaluated in the following manner. Cultured Hela cells expressing human cloned 5-HT6 receptors are harvested and centrifuged at low speed (1,000×g) for 10.0 min to remove the culture media. The harvested cells are suspended in half volume of fresh physiological phosphate buffered saline solution and recentrifuged at the same speed. This operation is repeated. The collected cells are then homogenized in ten volumes of 50 mM Tris.HCl (pH 7.4) and 0.5 mM EDTA. The homogenate is centrifuged at 40,000×g for 30.0 min and the precipitate is collected. The obtained pellet is resuspended in 10 volumes of Tris.HCl buffer and recentrifuged at the same speed. The final pellet is suspended in a small volume of Tris.HCl buffer and the tissue protein content is determined in aliquots of 10-25 μl volumes. Bovine Serum Albumin is used as the standard in the protein determination according to the method described in Lowry et al., J. Biol. Chem., 193:265 (1951). The volume of the suspended cell membranes is adjusted to give a tissue protein concentration of 1.0 mg/ml of suspension. The prepared membrane suspension (10 times concentrated) is aliquoted in 1.0 ml volumes and stored at −70° C. until used in subsequent binding experiments.
The reaction is allowed to proceed in the dark for 120 min at room temperature, at which time, the bound ligand-receptor complex is filtered off on a 96 well unifilter with a Packard Filtermate® 196 Harvester. The bound complex caught on the filter disk is allowed to air dry and the radioactivity is measured in a Packard TopCount® equipped with six photomultiplier detectors, after the addition of 40.0 μl Microscint®-20 scintillant to each shallow well. The unifilter plate is heat-sealed and counted in a PackardTopCount® with a tritium efficiency of 31.0%.
Specific binding to the 5-HT6 receptor is defined as the total radioactivity bound less the amount bound in the presence of 10.0 μM unlabeled methiothepin. Binding in the presence of varying concentrations of test compound is expressed as a percentage of specific binding in the absence of test compound. The results are plotted as logit % bound versus log concentration of test compound. Nonlinear regression analysis of data points with a computer assisted program Prism® yields both the IC50 and the Ki values of test compounds with 95% confidence limits.
The amount of displacement by the test compound is given in percent (%) inhibition and is derived from the following equation: [formula] where B0 is the amount of CPM bound in the presence of the testing agent. NSB represents the CPM bound in the presence of a saturating concentration of a displacer and TB represents the total amount of CPM bound at zero (0) concentration of test compound.
Alternatively, a linear regression line of decline of data points is plotted, from which the IC50 value can be read off and the Ki value determined by solving the following equation: [formula] where L is the concentration of the radioactive ligand used and KD is the dissociation constant of the ligand for the receptor, both expressed in nM.

T1 sequence (P50406 whole entry): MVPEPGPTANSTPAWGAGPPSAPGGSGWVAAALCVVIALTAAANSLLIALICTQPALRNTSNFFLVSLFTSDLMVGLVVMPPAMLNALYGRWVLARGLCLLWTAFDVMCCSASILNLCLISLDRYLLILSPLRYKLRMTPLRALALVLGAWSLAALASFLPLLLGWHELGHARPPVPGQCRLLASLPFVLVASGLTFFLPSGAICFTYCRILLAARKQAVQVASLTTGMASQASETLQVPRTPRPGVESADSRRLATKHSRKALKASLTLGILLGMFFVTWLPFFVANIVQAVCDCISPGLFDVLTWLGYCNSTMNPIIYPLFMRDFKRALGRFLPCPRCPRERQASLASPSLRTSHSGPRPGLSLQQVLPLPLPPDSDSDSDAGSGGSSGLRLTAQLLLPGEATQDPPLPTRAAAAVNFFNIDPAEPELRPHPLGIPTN

pKi	SMILES	inhibition at 1 µM
	N=C(N)NN=C(c1cn(S(=O)(=O)c2ccccc2)c2ccccc12)C1CCCCC1 [Example 2, 2-{Cyclohexyl[1-(phenylsulfonyl)-1H-indol-3-yl]methylidene}-hydrazinecarboximidamide]	69.2%
8.15	CC(=NNC(=N)N)c1cn(S(=O)(=O)c2ccccc2)c2ccccc12 [Example 9, 2-{1-[1-(phenylsulfonyl)-1H-indol-3-yl]ethylidene}hydrazinecarboximidamide]	

Same assay, conditions: test compound dose 100 nM; [3H]-LSD 3.0 nM

SMILES	inhibition at 0.1 µM	% Inhibition
CC(=NNC(=N)N)c1cn(S(=O)(=O)c2ccc(-c3ccccn3)s2)c2ccccc12 [Example 53, 2-(1-{1-[(5-pyridin-2-ylthien-2-yl)sulfonyl]-1H-indol-3-yl}ethylidene)hydrazinecarboximidamide]	38.4%	
COc1ccc(S(=O)(=O)n2cc(C(=NNC(=N)N)C3CC3)c3ccc(F)cc32)cc1OC [Example 117, 2-(cyclopropyl{1-[(3,4-dimethoxyphenyl)sulfonyl]-6-fluoro-1H-indol-3-yl}methylidene)hydrazinecarboximidamide]	78.2%	
CC(=NNC(=N)N)c1cn(S(=O)(=O)c2cc(Cl)c(Cl)s2)c2ccccc12 [Example 42, 2-(1-{1-[(4,5-dichlorothien-2-yl)sulfonyl]-1H-indol-3-yl}ethylidene)hydrazinecarboximidamide]	46.3%	
CCCCC(=NNC(=N)N)c1cn(S(=O)(=O)c2ccccc2)c2ccc(Cl)cc12 [Example 85, 2-{1-[5-chloro-1-(phenylsulfonyl)-1H-indol-3-yl]pentylidene}hydrazinecarboximidamide]	57.5%	
COc1ccc(S(=O)(=O)n2cc(C(=NNC(=N)N)C3CC3)c3ccccc32)cc1OC [Example 71, 2-(cyclopropyl{1-[(3,4-dimethoxyphenyl)sulfonyl]-1H-indol-3-yl}methylidene)hydrazinecarboximidamide]	61.5%	
CS(=O)(=O)n1cc(C(=NNC(=N)N)C2CC2)c2cc(Cl)ccc21 [Example 74, 2-[[5-chloro-1-(methylsulfonyl)-1H-indol-3-yl](cyclopropyl)methylidene]hydrazinecarboximidamide]	68.5%	
COc1ccc(S(=O)(=O)n2cc(C(=NNC(=N)N)C3CC3)c3ccccc32)cc1 [Example 63, 2-(cyclopropyl{1-[(4-methoxyphenyl)sulfonyl]-1H-indol-3-yl}methylidene)hydrazinecarboximidamide]	58.9%	
CC(=NNC(=N)N)c1cn(S(=O)(=O)c2ccc(-c3cc(C(F)(F)F)n(C)n3)s2)c2ccccc12 [Example 45, 2-{1-[1-({5-[1-methyl-5-(trifluoromethyl)-1H-pyrazol-3-yl]thien-2-yl}sulfony)-1H-indol-3-yl]ethylidene}hydrazinecarboximidamide]		23.5%
COc1ccc(Cl)cc1S(=O)(=O)n1cc(C(C)=NNC(=N)N)c2ccccc21 [Example 34, 2-(1-{1-[(5-chloro-2-methoxyphenyl)sulfonyl]-1H-indol-3-yl}ethylidene)hydrazinecarboximidamide]	48%	

Continued, in another order:

inhibition at 0.1 µM	SMILES	% Inhibition
68.2%	CC(=NNC(=N)N)c1cn(S(C)(=O)=O)c2ccccc12 [Example 55, 2-{1-[1-(methylsulfonyl)-1H-indol-3-yl]ethylidene}hydrazinecarboximidamide]	
69.4%	CCCCS(=O)(=O)n1cc(C(C)=NNC(=N)N)c2ccc(F)cc21 [Example 103, 2-{1-[1-(butylsulfonyl)-6-fluoro-1H-indol-3-yl]ethylidene}hydrazinecarboximidamide]	
70.1%	CC(=NNC(=N)N)c1cn(S(=O)(=O)c2ccccc2[N+](=O)[O-])c2ccccc12 [Example 51, 2-(1-{1-[(2-nitrophenyl)sulfonyl]-1H-indol-3-yl}ethylidene)hydrazinecarboximidamide]	
85.2%	N=C(N)NN=C(c1cn(S(=O)(=O)c2ccccc2)c2cc(F)ccc12)C1CC1 [Example 114, 2-{cyclopropyl[6-fluoro-1-(phenylsulfonyl)-1H-indol-3-yl]methylidene}hydrazinecarboximidamide]	
23.4%	CC(=NNC(=N)N)c1cn(C(=O)Nc2ccccc2)c2ccccc12 [Example 129, 3-(1-{2-[amino(imino)methyl]hydrazono}ethyl)-N-phenyl-1H-indole-1-carboxamide]	
78.1%	N=C(N)NN=C(c1cn(S(=O)(=O)c2ccccc2)c2ccc(Cl)cc12)C1CC1 [Example 86, 2-[[5-chloro-1-(phenylsulfonyl)-1H-indol-3-yl](cyclopropyl)methylidene]hydrazinecarboximidamide]	
82.4%	CC(=NNC(=N)N)c1cn(S(=O)(=O)c2ccccc2)c2ccc(F)cc12 [Example 19, 2-{1-[5-fluoro-1-(phenylsulfonyl)-1H-indol-3-yl]ethylidene}hydrazinecarboximidamide]	
71.9%	COc1ccc(S(=O)(=O)n2cc(C(=NNC(=N)N)C3CC3)c3cc(Cl)ccc32)cc1OC [Example 89, 2-[{5-chloro-1-[(3,4-dimethoxyphenyl)sulfonyl]-1H-indol-3-yl}(cyclopropyl)-methylidene]hydrazinecarboximidamide]	

Same assay, conditions: test compound dose 1000 nM; [3H]-LSD 3.0 nM; read-out: % Inhibition

SMILES	inhibition at 1 µM
N=C(N)NN=C(c1cn(S(=O)(=O)c2ccc3ccccc3c2)c2ccc(Cl)cc12)C1CC1 [Example 83, 2-[[5-chloro-1-(2-naphthylsulfonyl)-1H-indol-3-yl](cyclopropyl)methylidene]hydrazinecarboximidamide]	89.3%
CC(=NNC(=N)N)c1cn(S(=O)(=O)c2ccc3ccccc3c2)c2cc(F)ccc12 [Example 109, 2-{1-[6-fluoro-1-(2-naphthylsulfonyl)-1H-indol-3-yl]ethylidene}hydrazinecarboximidamide]	67.8%
COc1ccc(S(=O)(=O)n2cc(C(C)=NNC(=N)N)c3ccccc32)cc1 [Example 61, 2-(1-{1-[(4-methoxyphenyl)sulfonyl]-1H-indol-3-yl}ethylidene)hydrazinecarboximidamide]	83.6%

The next lines start with the values.

inhibition at 1 µM	SMILES
88.9%	COc1ccc(S(=O)(=O)n2cc(C(C)=NNC(=N)N)c3cc(Cl)ccc32)cc1OC [Example 87, 2-(1-{5-chloro-1-[(3,4-dimethoxyphenyl)sulfonyl]-1H-indol-3-yl}ethylidene)hydrazinecarboximidamide]
65.6%	CCCCC(=NNC(=N)N)c1cn(S(=O)(=O)c2ccc(OC)c(OC)c2)c2ccc(Cl)cc12 [Example 88, 2-(1-{5-chloro-1-[(3,4-dimethoxyphenyl)sulfonyl]-1H-indol-3-yl}pentylidene)hydrazinecarboximidamide]
95.2%	N=C(N)N/N=C(\C=C\c1ccccc1Cl)c1cn(S(=O)(=O)c2ccccc2)c2ccccc12 [Example 8, 2-{(E,2E)-3-(2-chlorophenyl)-1-[1-(phenylsulfonyl)-1H-indol-3-yl]prop-2-enylidene}-hydrazinecarboximidamide]
9%	CCCCC(=NNC(=N)N)c1c(-c2ccc(Cl)cc2)n(S(C)(=O)=O)c2ccccc12 [Example 91, 2-{1-[2-(4-chlorophenyl)-1-(methylsulfonyl)-1H-indol-3-yl]pentylidene}hydrazinecarboximidamide]
81.3%	CCCCC(=NNC(=N)N)c1cn(S(=O)(=O)CCCC)c2cc(F)ccc12 [Example 104, 2-{1-[1-(butylsulfonyl)-6-fluoro-1H-indol-3-yl]pentylidene}hydrazinecarboximidamide]
63.5%	CC(=NNC(=N)N)c1c(-c2ccc(Cl)cc2)n(S(C)(=O)=O)c2ccccc12 [Example 90, 2-{1-[2-(4-chlorophenyl)-1-(methylsulfonyl)-1H-indol-3-yl]ethylidene}hydrazinecarboximidamide]
99.5%	CC(=NNC(=N)N)c1cn(S(=O)(=O)c2ccccc2)c2ccccc12 [Example 9, 2-{1-[1-(phenylsulfonyl)-1H-indol-3-yl]ethylidene}hydrazinecarboximidamide]
71.9%	Cc1ccc(S(=O)(=O)n2cc(C=NN(C)C3=NCCN3)c3ccccc32)cc1 [Example 4, 1-[(4-methylphenyl)sulfonyl]-1H-indole-3-carbaldehyde 4,5-dihydro-1H-imidazol-2-yl(methyl)hydrazone]
74.5%	CCCCC(=NNC(=N)N)c1cn(S(=O)(=O)CCCC)c2ccc(Cl)cc12 [Example 76, 2-{1-[1-(butylsulfonyl)-5-chloro-1H-indol-3-yl]pentylidene}hydrazinecarboximidamide]
